Experiment: Antiproliferative activity against mouse EAC cells assessed as ratio of ID50 of compound to ID50 of 8-methoxypsoralen
Type: functional, Ehrlich
With COc1c2oc(=O)c(C)cc2cc2c(C)coc12 the Ratio was 0.89. With Cc1oc2cc3oc(=O)ccc3cc2c1C the Ratio was 1.26. Cc1cc2cc3c(C)coc3c(C)c2oc1=O showed a Ratio of 1.34. In the case of Cc1oc2cc3oc(=O)c(C)cc3cc2c1C, the Ratio is reported as 1.79. In the case of Cc1oc2ccc3ccc(=O)oc3c2c1C, the Ratio is reported as 1.47. In the case of Cc1cc2cc3c(C)coc3cc2oc1=O, the Ratio is reported as 1.01. In the case of Cc1cc(=O)oc2nc3occc3cc12, the Ratio is reported as 0.14. Cc1oc2nc3oc(=O)ccc3cc2c1C gave a Ratio of 0.18. With Cc1coc2nc3oc(=O)ccc3cc12 the Ratio was 0.13. For Cc1c(C)c2cc3c(C)coc3cc2oc1=O, the Ratio was 0.34. Work on COCc1cc(=O)n(C)c2c1cc(C)c1oc(C)cc12 yielded a Ratio of 2.09. In the case of Cc1cc(=O)[nH]c2c1cc(C)c1occ(C)c12, the Ratio is reported as 4.62. With O=C(c1cc2ccc3occc3c2oc1=O)N(CCO)CCO the Ratio was <0.01. For CN1CCN(C(=O)c2cc3ccc4occc4c3oc2=O)CC1, the Ratio was <0.01. In the case of O=C(c1ccccc1)c1cc2ccc3occc3c2oc1=O, the Ratio is reported as <0.01. For CCN(CC)C(=O)c1cc2ccc3occc3c2oc1=O, the Ratio was <0.01. For O=C(NCCO)c1cc2ccc3occc3c2oc1=O, the Ratio was <0.01. For CCOCCNC(=O)c1cc2ccc3occc3c2oc1=O, the Ratio was <0.01. For CN(C)CCNC(=O)c1cc2ccc3occc3c2oc1=O, the Ratio was <0.01. NC(=O)c1cc2ccc3occc3c2oc1=O showed a Ratio of 0.05. O=C(c1cc2ccc3occc3c2oc1=O)N1CCOCC1 gave a Ratio of 0.06. O=C(O)c1cc2ccc3occc3c2oc1=O gave a Ratio of 0.07. In the case of CN(C)C(=O)c1cc2ccc3occc3c2oc1=O, the Ratio is reported as 0.07. With COC(=O)c1cc2ccc3occc3c2oc1=O the Ratio was 0.2. Cc1cc(=O)oc2c1c(C)cc1occ(C)c12 showed a Ratio of 5.78. For Cc1cc(=O)[nH]c2c1ccc1occ(C)c12, the Ratio was 0.48. In the case of Cc1oc2nc3oc(=O)ccc3c(C)c2c1C, the Ratio is reported as 0.25. With Cc1c(C)c2cc3c(C)coc3nc2oc1=O the Ratio was 0.67. Cc1coc2nc3oc(=O)cc(C)c3cc12 gave a Ratio of 0.68. Work on Cc1coc2nc3oc(=O)ccc3c(C)c12 yielded a Ratio of 0.97. In the case of Cc1oc2nc3oc(=O)c(C)c(C)c3cc2c1C, the Ratio is reported as 1.83. Work on Cc1cc2ccc3occc3c2oc1=O yielded a Ratio of 0.2. In the case of Cc1c(C)c2ccc3occ(C)c3c2oc1=O, the Ratio is reported as 0.03. For Cc1c(C)c2ccc3occc3c2oc1=O, the Ratio was 0.35. Compound CCOC(=O)c1cc2ccc3occc3c2oc1=O has a Ratio of 0.4. Compound Cc1cc2c(o1)c(C)cc1c(CO)cc(=O)[nH]c12 has a Ratio of 0.66. Cc1cc(=O)[nH]c2c1cc(C)c1oc(CO)c(C)c12 gave a Ratio of 1.07. Compound Cc1cc2c(o1)c(C)cc1c(C)cc(=O)[nH]c12 has a Ratio of 1.36. Compound Cc1oc2nc3oc(=O)cc(C)c3cc2c1C has a Ratio of 3.66. With CC(=O)c1cc2ccc3occc3c2oc1=O the Ratio was <0.01. In the case of COCc1c(C)oc2ccc3c(C)cc(=O)oc3c12, the Ratio is reported as 0.6. For Cc1coc2cc3oc(=O)cc(CO)c3cc12, the Ratio was 2.32. Compound Cc1cc2c(o1)c(C)cc1c(CO)cc(=O)n(C)c12 has a Ratio of 5.6. In the case of Cc1cc(=O)oc2c1ccc1occc12, the Ratio is reported as 0.55. With Cc1cc2occ(C)c2c2oc(=O)ccc12 the Ratio was 5.3. With Cc1cc(=O)oc2c1ccc1occ(C)c12 the Ratio was 5.75. Compound Cc1oc2c(C)cc3c(C)cc(=O)[nH]c3c2c1C has a Ratio of 9.25. With Cc1cc2c(ccc3ccc(=O)oc32)o1 the Ratio was 0.8. Compound Cc1coc2ccc3ccc(=O)oc3c12 has a Ratio of 0.81. Cc1oc2ccc3c(C)cc(=O)[nH]c3c2c1C gave a Ratio of 2.59. Compound Cc1cc2c(ccc3c(C)cc(=O)oc32)o1 has a Ratio of 1.27. Work on O=c1ccc2ccc3occc3c2o1 [ANGELICIN] yielded a Ratio of 0.55. COc1c2ccoc2cc2oc(=O)ccc12 [BERGAPTEN] gave a Ratio of 0.66. In the case of COc1c2occc2cc2ccc(=O)oc12 [METHOXSALEN], the Ratio is reported as 1. O=c1ccc2cc3ccoc3cc2o1 [PSORALEN] showed a Ratio of 1.52. With Cc1cc2cc3c(C)cc(=O)oc3c(C)c2o1 [TRIOXSALEN] the Ratio was 27.6.

Source: ChEMBL document CHEMBL1153790, “Scoring function for DNA-drug docking of anticancer and antiparasitic compounds based on spectral moments of 2D lattice graphs for molecular dynamics trajectories” (2009)
